Results as given in patent US12714698B2, “Compositions and methods for treating or preventing dermal disorders” (Drexel University, priority 2015, dated 2026).
Entries after “also recorded” stand apart in the source; their conditions may differ.

Key:
[1] = test system: human lung fibroblasts; test: Mitochondrial respiration, Seahorse Bioanalyzer, lung fibroblasts; assay type: cell-based; conditions: rapamycin-treated lung fibroblasts
Procedure: Cell culture reagents were from Cellgro, unless indicated. […]
Mitochondrial function was measured using the XF cell mito stress test kit on a Seahorse XF24 Bioanalyzer (Seahorse Bioscience). […] Following acquisition, results were normalized based upon 10^6 cells counted using a Guava EasyCyte Mini (Millipore), where applicable. […] Mitochondrial respiration was calculated based upon oxygen consumption rate measurements in triplicates from cells seeded in at least quadruplicates. […]

[2] = test system: human fibroblasts; test: Long-term culture of human fibroblasts with or without rapamycin (lifespan, organization, p21 and IL-6 expression); assay type: cell-based
Procedure: FIG. 13 is a graph illustrating the finding that rapamycin treatment provides lifespan extension in human fibroblasts. Human fibroblast cells were growth in culture medium with or without rapamycin (1 nM). Cultures were split every 7 days and reseeded at identical cell number/cm^2 each week. The lifespan of normal human fibroblasts is counted by the number of times that the cells double.
FIG. 14 illustrates the finding that rapamycin preserves cell organization during aging of human fibroblasts. […] The ability to organize is a critical element of normal fibroblast function and contributes to tissue integrity in normal tissue. The disorganization which occurs with age contributes to functional decline.
FIG. 17 is a bar graph illustrating the finding that rapamycin prevents the expression of genes that cause senescence. The p21 gene makes a protein that is critical for senescence of human fibroblasts.
FIG. 18 is a bar graph illustrating the finding that rapamycin prevents the expression of genes related to inflammation. The IL-6 gene makes a protein that activates the immune system to recruit immune cells into an area of tissue damage.
(§1) Cell culture experiments utilizing NRTIs were of the following design. Cultures of either human lung or cardiac fibroblasts were cultivated according to standard culture protocols for these cells (Cristofalo, et al., Journal of Tissue Culture Methods 1980, 6:117-121). Parallel sets of cultures were maintained in normal growth media or in normal growth media with the addition of 1 nM rapamycin. Cultures were maintained with 1 nM rapamycin (Enzo Biologicals) for two weeks before exposure to NRTIs. Cell cultures were exposed to NRTIs at indicated concentrations in individual experiments (generally 10-20 μg/ml) for 7 days, with a change of media and fresh NRTIs at day 4. Mitochondrial measurements, bioanalyzer measurements, immunoblotting for protein expression and phosphorylation status, and assays for senescence were performed at the end of this 7-day period.

[3] = test system: human fibroblasts; test: Ethidium bromide mitochondrial stress in human fibroblasts
Source text: Human fibroblasts were exposed to ethidium bromide for 7 days and cell viability measured at that time.

[4] = test system: p53 and MDM2; test: p53/MDM2 co-immunoprecipitation and p53 forms after proteasome inhibition; assay type: cell-based, human; conditions: after proteasome inhibitor
Procedure: FIGS. 11A-11F illustrate status of p53 in human cardiac fibroblast cultures exposed to NRTIs and in rapamycin-treated cultures. FIG. 11A is a bar graph illustrating comet assay results for cells exposed to NRTIs or hydrogen peroxide as a positive control. The white bar represents control data; grey bar represents data from cells exposed to 10 or 20 μg/ml NRTI for 7 days; and the black bar represents data from cells exposed to 200 μM hydrogen peroxide for 2 hours. […] FIG. 11B depicts the results of an immunoprecipitation experiment using antibodies against p53. Cell lysates from control and rapamycin-treated cultures, with or without NRTI exposure for 7 days, were subjected to immunoprecipitation using anti-p53 antibodies followed by immunoblot analysis for MDM2 and subsequently for p53. […] FIG. 11F is a bar graph illustrating relative intensity of cytosolic MDM2 staining as determined by Image J Analysis.
Cell protein extracts were prepared by extracting with radioimmunoprecipitation assay (RIPA) buffer containing a protease inhibitor cocktail (Sigma-Aldrich) and phosphatase inhibitors, NaF and sodium orthovanadate. Protein concentration was quantified using a bicinchoninic acid (BCA) assay (Pierce Biotechnology). […] For co-immunoprecipitation, cell protein extracts were prepared in HNTG buffer containing a protease inhibitor cocktail and quantified using BCA assay. […]

[5] = test system: human cardiac fibroblasts; test: Nanostring analysis of mRNA levels; assay type: cell-based; conditions: rapamycin
Procedure: as §1
Differences in mitochondria-related gene expression was examined using a nanostring approach which allows multiplex evaluation of mRNA species in the absence of amplification and provides a direct count of mRNA molecules. The mRNA levels paralleled the changes observed in protein levels as mRNA levels for all subunits increased in cells exposed to NRTIs while rapamycin decreased mRNA levels for all subunits (FIGS. 2D-2H).

[6] = cells grown in the presence of rapamycin

With `CO[C@H]1C[C@@H]2CC[C@@H](C)[C@@](O)(O2)C(=O)C(=O)N2CCCC[C@H]2C(=O)O[C@H]([C@H](C)C[C@@H]2CC[C@@H](O)[C@H](OC)C2)CC(=O)[C@H](C)/C=C(\C)[C@@H](O)[C@@H](OC)C(=O)[C@H](C)C[C@H](C)/C=C/C=C/C=C/1C` [rapamycin] the “basal and maximal respiration, proton leak following exposure to NRTIs” value [1] was “no increase”, the “IL-6 expression as cells age” value [2, 6] was “do not produce IL-6” and the “p21 expression as cells age” value [2, 6] was “do not produce p21”. For the same molecule, the “cell organization during aging” value ([2]; low doses of rapamycin) was “maintained an orderly growth pattern”, the “replicative lifespan (number of times that the cells double)” value ([2]; rapamycin 1 nM in culture medium) was “extend replicative lifespan; also recorded: well beyond the normal lifespan” and the “survival of human fibroblasts following mitochondrial stress” value ([3]; ethidium bromide for 7 days) was “increases the survival”. The “mitochondrial network following exposure to EthBr” value ([3]; rapamycin treated cells) was “able to maintain their mitochondrial network”, the mitochondrial network ([3]; rapamycin treated cells, no toxin) was “normal mitochondrial network” and the “high molecular weight forms of p53” value [4] was “prominent”. The “mRNA levels for ETC subunits” value [5] was “decreased”.
